From patent publication US20250368628A1, “METHODS AND COMPOUNDS FOR MODULATING INHERITED GENETIC DISEASES” (Design Therapeutics, Inc., priority 2022, published 2025)

System: Myotonic Dystrophy 1 affected patient fibroblasts (Coriel GM04602; 1600 CTG repeats)
Test: DM1 foci reduction assay (EC50 assay; CAG10-Cy3 FISH, foci per nucleus)
Assay type: cell-based
Settings: Homo sapiens, Fibroblast; DM1 patient fibroblasts, 48 h treatment, foci per nucleus; read-out: DM1 EC50, 48 h
Description: DM1 Foci Reduction Assay Methods
Myotonic Dystrophy 1 affected patient fibroblasts (Coriel GM04602; 1600 CTG repeats) and wild type fibroblasts (Coriell GM07492; control line) were cultured separately in Gibco DMEM (1×)+4.5 g/L D-Glucose+L-Glutamine+[…] Sodium Pyruvate, supplemented with 10% FBS and 1× Pen/Strep. Cells were maintained in an incubator at 37° C. and 5% CO2 with media refreshed every 48-72 hours.
At 90-95% confluency, both cell lines were harvested using Trypl-E then pelleted at 500×g for 5 minutes and were resuspended in fresh media. DM1 fibroblasts were seeded in Agilent 96 well black plates at a density of 5,000 cells/well in 200 μL media; and 8 wells were reserved for control fibroblasts. Plates were returned to incubator for 24 hours at 37° C. and 5% CO2.
Compounds were diluted from 10 mM stock to 1 mM in DMSO and then diluted once more to 6 μM (2× concentration) in media. Media was removed from all plates and cells were replenished with 100 μL media. Cells were treated in 8-point dose response, 1:3 fold dilution, 3 μM top dose via addition of 100 μL of 6 μM (2× concentration) compound to the 100 μL media with cells. Plates were returned to incubator for 48 hours at 37° C. and 5% CO2.
Following treatment, compounds were removed, and plates were washed with PBS, then cells were fixed in 75 μL 4% PFA solution for 20 minutes at room temperature. Plates were washed twice with PBS and twice with cold 70% ethanol before permeabilization with 250 μL cold 70% ethanol for 24-72 hours at −20° C.
After permeabilization, plates were washed once with a 30% formamide and 2×SSC buffer and rehydrated in that buffer for 15 minutes at room temperature. Cells were incubated overnight at 37° C. in 75 μL of a hybridization solution containing 30% formamide, 2×SSC, 25 mg/mL dextran sulfate, 2.5 mg/mL BSA, 0.2 μg/mL Herring sperm DNA, 2 mM vanadyl-ribonucleoside complex, and 5 nM CAG10-Cy3 probe.
Plates were washed once with 30% formamide in 2×SSC buffer, then twice with the buffer for 30 minutes at 37° C., 300 RPM in an incubating plate shaker. Cells were stained with 75 μL of 2.5 μg/mL DAPI in PBS for 5 minutes at room temperature. Plates were then washed twice with PBS and stored in 250 μL PBS. Plates were sealed with adhesive foil and wiped down with 70% ethanol.
Cells were imaged on a Cytation5 with a 20× objective sampling from 4 areas of each well. Nuclei were captured under DAPI channel and foci under RFP channel. Plates were analyzed on an average foci per nucleus per well basis.

## CCCNC(=O)c1cc(NC(=O)c2nc(NC(=O)CCNC(=O)c3cc(NC(=O)c4nc(NC(=O)[C@H](N)CCNC(=O)c5cc(NC(=O)c6nc(NC(=O)CCNC(=O)c7cc(NC(=O)c8nccn8C)cn7C)cn6C)cn5C)cn4C)cn3C)cn2C)cn1C [Compound B-6]
  EC50: 0.5 to 1 µM

## CCCNC(=O)c1cc(NC(=O)c2nc(NC(=O)CCNC(=O)c3cc(NC(=O)c4nc(NC(=O)[C@@H](CCNC(=O)c5cc(NC(=O)c6nc(NC(=O)CCNC(=O)c7cc(NC(=O)c8nccn8C)cn7C)cn6C)cn5C)NC(C)=O)cn4C)cn3C)cn2C)cn1C [Compound B-7]
  EC50: 0.5 to 1 µM

## Cn1cc(NC(=O)c2nc(NC(=O)CCNC(=O)c3cc(NC(=O)c4nccn4C)cn3C)cn2C)cc1C(=O)NCCCC(=O)Nc1cn(C)c(C(=O)NCCC(=O)Nc2cc(C(=O)Nc3cn(C)c(C(=O)NCCC(=O)NCCOCCOCCOCCOCCOc4ccc(NC(=O)OCc5ccccc5)cc4)n3)n(C)c2)n1 [Compound B-11]
  EC50: > 1 µM

## Cn1cc(NC(=O)c2nc(NC(=O)CCNC(=O)c3cc(NC(=O)c4nccn4C)cn3C)cn2C)cc1C(=O)NCCCC(=O)Nc1cn(C)c(C(=O)NCCC(=O)Nc2cc(C(=O)Nc3cn(C)c(C(=O)NCCC(=O)NCCOCCOCCOc4ccc(NC(=O)OCc5ccccc5)cc4)n3)n(C)c2)n1 [Compound B-13]
  EC50: > 1 µM

## Cn1cc(NC(=O)c2nc(NC(=O)CCNC(=O)c3cc(NC(=O)c4nccn4C)cn3C)cn2C)cc1C(=O)NCCCC(=O)Nc1cn(C)c(C(=O)NCCC(=O)Nc2cc(C(=O)Nc3cn(C)c(C(=O)NCCC(=O)N4CCC(N5CCN(CCOCCOCCOCCOCCN)CC5)CC4)n3)n(C)c2)n1 [Compound B-24]
  EC50: > 1 µM

## Cn1cc(NC(=O)c2nc(NC(=O)CCNC(=O)c3cc(NC(=O)c4nccn4C)cn3C)cn2C)cc1C(=O)NCCCC(=O)Nc1cn(C)c(C(=O)NCCC(=O)Nc2cc(C(=O)Nc3cn(C)c(C(=O)NCCC(=O)NCCOCCN4CCN(C5CCN(c6ccc([N+](=O)[O-])cc6)CC5)CC4)n3)n(C)c2)n1 [Compound B-26]
  EC50: > 1 µM

## Cn1cc(NC(=O)c2nc(NC(=O)CCNC(=O)c3cc(NC(=O)c4nccn4C)cn3C)cn2C)cc1C(=O)NCCCC(=O)Nc1cn(C)c(C(=O)NCCC(=O)Nc2cc(C(=O)Nc3cn(C)c(C(=O)NCCC(=O)N4CCN(C5CCN(c6ccc([N+](=O)[O-])cc6)CC5)CC4)n3)n(C)c2)n1 [Compound B-29, 1-Methyl-4-{1-methyl-4-[3-({1-methyl-4-[4-({1-methyl-4-[1-methyl-4-(3-{[1-methyl-4-(1-methylimidazole-2-amido)pyrrol-2-yl]formamido}propanamido)imidazole-2-amido]pyrrol-2-yl}formamido)butanamido]imidazol-2-yl}formamido)propanamido]pyrrole-2-amido}-N-(3-{4-[1-(4-nitrophenyl)piperidin-4-yl]piperazin-1-yl}-3-oxopropyl)imidazole-2-carboxamide]
  EC50: > 1 µM

## Cn1cc(NC(=O)c2nc(NC(=O)CCNC(=O)c3cc(NC(=O)c4nccn4C)cn3C)cn2C)cc1C(=O)NCCCC(=O)Nc1cn(C)c(C(=O)NCCC(=O)Nc2cc(C(=O)Nc3cn(C)c(C(=O)NCCC(=O)NCCCN=C(N)N)n3)n(C)c2)n1 [Compound B-34]
  EC50: 0.5 to 1 µM

## CCCCCCCCCCNC(=O)CCNC(=O)c1nc(NC(=O)c2cc(NC(=O)CCNC(=O)c3nc(NC(=O)CCCNC(=O)c4cc(NC(=O)c5nc(NC(=O)CCNC(=O)c6cc(NC(=O)c7nccn7C)cn6C)cn5C)cn4C)cn3C)cn2C)cn1C [Compound B-40]
  EC50: < 0.1 µM

## CN(C)CCCCCNC(=O)CCNC(=O)c1nc(NC(=O)c2cc(NC(=O)CCNC(=O)c3nc(NC(=O)CCCNC(=O)c4cc(NC(=O)c5nc(NC(=O)CCNC(=O)c6cc(NC(=O)c7nccn7C)cn6C)cn5C)cn4C)cn3C)cn2C)cn1C [Compound B-41]
  EC50: 0.1 to 0.5 µM

## Cn1cc(NC(=O)c2nc(NC(=O)CCNC(=O)c3cc(NC(=O)c4nccn4C)cn3C)cn2C)cc1C(=O)NCCCC(=O)Nc1cn(C)c(C(=O)NCCC(=O)Nc2cc(C(=O)Nc3cn(C)c(C(=O)NCCC(=O)NCCO)n3)n(C)c2)n1 [Compound B-51]
  EC50: 0.1 to 0.5 µM

## Cn1cc(NC(=O)c2nc(NC(=O)CCNC(=O)c3cc(NC(=O)c4nccn4C)cn3C)cn2C)cc1C(=O)NCCCC(=O)Nc1cn(C)c(C(=O)NCCC(=O)Nc2cc(C(=O)Nc3cn(C)c(C(=O)NCCC(=O)NC4CCCCC4)n3)n(C)c2)n1 [Compound B-53]
  EC50: 0.1 to 0.5 µM

## Cn1cc(NC(=O)c2nc(NC(=O)CCNC(=O)c3cc(NC(=O)c4nccn4C)cn3C)cn2C)cc1C(=O)NCCCC(=O)Nc1cn(C)c(C(=O)NCCC(=O)Nc2cc(C(=O)Nc3cn(C)c(C(=O)NCCC(=O)N[C@H]4CC[C@H](O)CC4)n3)n(C)c2)n1 [Compound B-54]
  EC50: 0.1 to 0.5 µM

## CN1CCC(NC(=O)CCNC(=O)c2nc(NC(=O)c3cc(NC(=O)CCNC(=O)c4nc(NC(=O)CCCNC(=O)c5cc(NC(=O)c6nc(NC(=O)CCNC(=O)c7cc(NC(=O)c8nccn8C)cn7C)cn6C)cn5C)cn4C)cn3C)cn2C)CC1 [Compound B-55]
  EC50: 0.1 to 0.5 µM

## CCCNC(=O)CCNC(=O)c1nc(NC(=O)c2cc(NC(=O)CCNC(=O)c3nc(NC(=O)CCCNC(=O)c4cc(NC(=O)c5nc(NC(=O)CCNC(=O)c6cc(NC(=O)c7nccn7C)cn6C)cn5C)cn4C)cn3C)cn2CCCCCCN=[N+]=[N-])cn1C [Compound B-56]
  EC50: 0.1 to 0.5 µM

## CCCNC(=O)CCNC(=O)c1nc(NC(=O)c2cc(NC(=O)CCNC(=O)c3nc(NC(=O)CCCNC(=O)c4cc(NC(=O)c5nc(NC(=O)CCNC(=O)c6cc(NC(=O)c7nccn7C)cn6CCCCCCN=[N+]=[N-])cn5C)cn4C)cn3C)cn2C)cn1C [Compound B-60]
  EC50: 0.1 to 0.5 µM

## CCCNC(=O)CCNC(=O)c1nc(NC(=O)c2cc(NC(=O)CCNC(=O)c3nc(NC(=O)CCCNC(=O)c4cc(NC(=O)c5nc(NC(=O)CCNC(=O)c6cc(NC(=O)c7nccn7C)cn6CCCCCCN)cn5C)cn4C)cn3C)cn2C)cn1C [Compound B-61]
  EC50: > 1 µM

## CCCNC(=O)CCNC(=O)c1nc(NC(=O)c2cc(NC(=O)CCNC(=O)c3nc(NC(=O)CCCNC(=O)c4cc(NC(=O)c5nc(NC(=O)CCNC(=O)c6cc(NC(=O)c7nccn7C)c[nH]6)cn5C)c[nH]4)cn3C)c[nH]2)cn1C [Compound B-62]
  EC50: > 1 µM

## CCCNC(=O)c1cc(NC(=O)c2cc(NC(=O)c3nc(NC(=O)c4nc(NC(=O)[C@@H](N)CCNC(=O)c5nc(NC(=O)CCNC(=O)c6cc(NC(=O)c7nccn7C)cn6C)cn5C)cn4C)cn3C)cn2C)cn1C [Compound B-64]
  EC50: > 1 µM

## CCOC(=O)CCNC(=O)c1nc(NC(=O)c2cc(NC(=O)CCNC(=O)c3nc(NC(=O)CCCNC(=O)c4cc(NC(=O)c5nc(NC(=O)CCNC(=O)c6cc(NC(=O)c7nccn7C)cn6C)cn5C)cn4C)cn3C)cn2C)cn1C [Compound B-65]
  EC50: 0.1 to 0.5 µM

## CCCNC(=O)c1cc(NC(=O)c2nc(NC(=O)CCCNC(=O)c3cc(NC(=O)c4nc(NC(=O)CCNC(=O)c5cc(NC(=O)c6nccn6C)cn5C)cn4C)cn3C)cn2C)cn1C [Compound B-67]
  EC50: > 1 µM

## Cn1cc(NC(=O)c2nc(NC(=O)CCNC(=O)c3cc(NC(=O)c4nccn4C)cn3C)cn2C)cc1C(=O)NCCCC(=O)Nc1cn(C)c(C(=O)NCCC(=O)Nc2cc(C(=O)Nc3cn(C)c(C(=O)NCCC(=O)N4CC(c5cnc(CN(CCCCO)CCCCO)[nH]5)C4)n3)n(C)c2)n1 [Compound B-70]
  EC50: 0.1 to 0.5 µM

## COCCOCCOCCOCCOCCOCCOCCOCCN(CCOCCOCCOCCOCCOCCOCCOCCOC)C(=O)CCNC(=O)c1nc(NC(=O)c2cc(NC(=O)CCNC(=O)c3nc(NC(=O)CCCNC(=O)c4cc(NC(=O)c5nc(NC(=O)CCNC(=O)c6cc(NC(C)c7nccn7C)cn6C)cn5C)cn4C)cn3C)cn2C)cn1C (centres unmarked) [Compound B-80]
  EC50: > 1 µM

## CCCNC(=O)CCNC(=O)c1nc(NC(=O)c2cc(NC(=O)CCNC(=O)c3nc(NC(=O)CCCNC(=O)c4cc(NC(=O)c5nc(NC(=O)c6cc(NC(=O)CCNC(=O)c7nccn7C)cn6C)cn5C)cn4C)cn3C)cn2C)cn1C [Compound B-83]
  EC50: > 1 µM

## Cn1cc(NC(=O)c2nc(NC(=O)c3cc(NC(=O)CCNC(=O)c4nccn4C)cn3C)cn2C)cc1C(=O)NCCCC(=O)Nc1cn(C)c(C(=O)NCCC(=O)Nc2cc(C(=O)Nc3cn(C)c(C(=O)NCCC(=O)NCCCCN=[N+]=[N-])n3)n(C)c2)n1 [Compound B-84]
  EC50: > 1 µM

## CCN(CC)CCCC[C@H](NC(C)=O)C(=O)NCCOCCOCCOCCNC(=O)CCNC(=O)c1nc(NC(=O)c2cc(NC(=O)CCNC(=O)c3nc(NC(=O)CCCNC(=O)c4cc(NC(=O)c5nc(NC(=O)CCNC(=O)c6cc(NC(=O)c7nccn7C)cn6C)cn5C)cn4C)cn3C)cn2C)cn1C [Compound B-86]
  EC50: > 1 µM
